Test results reported in US9549911B2, “Ginger metabolites and uses thereof” (North Carolina A&T State University, priority 2012, dated 2017).
Where two headings read alike, the source gives them in different places.

Tests used:
[1] = system: human colon cancer cells HCT-116; experiment: MTT growth inhibition of human cancer and normal cells (Part 2); type: cell-based; settings: for IC50: HCT-116, 48 h, 0 to 80 μM; for activity against cancer cells (MTT): HCT-116, 0 to 80 μM
Procedure: (§1) Growth inhibition of human cancer and normal cells. Cell growth inhibition was determined by a MTT colorimetric assay. Human colon cancer cells HCT-116, human lung cancer cells H-1299, human colon fibroblast cells CCD-18Co, and human lung fibroblast cells IMR-90 were plated in 96-well microtiter plates with 3000 cells/well and allowed to attach for 24 h at 37° C. […] After the cells were cultured for 48 h, the medium was aspirated and cells were treated with 200 μL fresh medium containing 2.41 mmol/L MTT. […] The reading reflected the number of viable cells and was expressed as a percentage of viable cells in the control. Both HCT-116 and H-1299 cells were cultured in McCoy's 5A medium. CCD-18Co and IMR-90 cells were cultured in Eagle's modified essential medium (EMEM). All of the above media were supplemented with 10% fetal bovine serum, 1% penicillin/streptomycin, and 1% glutamine, and the cells were kept in a 37° C. incubator with 95% humidity and 5% CO2.

[2] = system: human lung cancer cells H-1299; experiment: as above; type: cell-based; settings: for IC50: H-1299, 48 h, 0 to 80 μM; for activity against cancer cells (MTT): H-1299, 0 to 80 μM
Procedure: as §1

[3] = system: human colon fibroblast cells CCD-18Co; experiment: in vitro; type: cell-based
Procedure: as §1

[4] = system: human lung fibroblast cells IMR-90; experiment: in vitro; type: cell-based
Procedure: as §1

H-1299 cells [5] = experiment: TUNEL apoptosis assay (Part 2); type: cell-based, human; settings: H-1299, 20 or 40 μM, 24 hours
Procedure: (§2) HCT-116 and H1299 cells were seeded in 6-well plates at 1×10^5 cells/well and incubated at 37° C. in 5% CO2 incubator. After 24 hours, fresh media supplemented with DMSO (control), [6]-shogaol, M2, M6, or M13 metabolites (20 μM or 40 μM) were added to the wells. After 6 or 24 hours incubation at 37° C. in 5% CO2 incubator, cells were washed and pre-treated for 15 min at room temperature with a solution of 20 μg/ml proteinase K. Cells were then washed twice with phosphate buffer saline pH 7.4 (PBS) and fixed for 10 min at room temperature using 10% neutral formaldehyde solution. After 2 washes in ddH2O, cells were resuspended in 100 μL ddH2O and applied on silanized microscope slides. Slides were incubated overnight at 37° C., and washed twice with PBS. TUNEL assay was then carried out according to the manufacturer's protocol. Cells were observed under 400× power using a Zeiss microscope A1 (Thornwood, N.Y.). 10 fields per slide were evaluated, and TUNEL+ cells (with brown coloration in the nucleus) were expressed as a percentage of the total number of cells contained in a field.

HCT-116 cells [6] = experiment: TUNEL apoptosis assay (Part 2); type: cell-based, human; settings: HCT-116, 20 or 40 μM
Procedure: as §2

[7] = system: human colon cancer cells HCT-116; experiment: MTT toxicity in colon cancer and normal colon cells (Part 5); type: cell-based; settings: HCT-116, 24 hours
Procedure: (§3) Cell viability was determined by an MTT colorimetric assay. […] The reading reflected the number of viable cells and was expressed as a percentage of viable cells in the control. CCD-18Co cells were grown in EMEM. Both HCT-116 and HT-29 cells were cultured in McCoy's 5A medium. All of the above media were supplemented with 10% fetal bovine serum, 1% penicillin/streptomycin, and 1% glutamine, and the cells were kept in a 37° C. incubator with 95% humidity and 5% CO2.

[8] = system: human colon cancer cells HT-29; experiment: as above; type: cell-based; settings: HT-29 (p53 mutant), 24 hours
Procedure: as §3

HCT-116 cells [9] = experiment: Western blot analysis of apoptosis markers and p53 (Part 5); type: cell-based, human; settings: HCT-116 (p53 wild-type), 24 hours; M2, 6S 10, 20 or 40 μM; 8S, M2′, 10S, M2″ 20 μM
Procedure: (§4) Cell lysates were prepared in ice-cold RIPA lysis buffer [25 mM Tris-HCl (pH 7.6), 150 mM NaCl, 1% NP-40, 1% sodium deoxycholate, 0.1% SDS, Thermo Fisher Scientific] supplemented with a protease inhibitor cocktail (AEBSF, aprotinin, bestatin, E-64, leupeptin and pepstatin A in DMSO with EDTA, Thermo Fisher Scientific). Protein content was measured by a Pierce BCA Assay Kit (Thermo Fisher Scientific). Protein contents of cell lysates (30 μg protein/lane) were resolved by SDS-PAGE. Proteins were then electro-transferred onto PVDF membranes and blots were blocked for one hour at room temperature in 1×TBS with 1% Casein (Bio-Rad Laboratories, Berkeley, Calif.). Blots were then incubated overnight at 4° C. with the desired primary antibody diluted in TBS with 0.5% Tween-20. Blots were then washed with TBS-Tween 20 and probed for 1 hour with the appropriate secondary antibody (1:1000). Protein bands were visualized with chemiluminescence using West Femto maximum detection substrate (Thermo Fisher Scientific). To confirm equal protein loading in each lane, immunoblots were stripped and re-probed for β-actin. Protein fold-induction was calculated by normalizing the intensity of the band of interest to β-actin first, and then to DMSO control lanes.

HT-29 cells = experiment: as above; type: cell-based, human; settings: HT-29 (p53 mutant), 24 hours; M2, 6S 10, 20 or 40 μM; 8S, M2′, 10S, M2″ 20 μM
Procedure: as §4

in vitro [10] = type: cell-based, human; settings: human; normal colon cells CCD-18Co, 48 h; read-out: IC50 (cytotoxicity, MTT)
Procedure: as §1

in vitro [11] = type: cell-based, human; settings: human; normal lung cells IMR-90, 48 h; read-out: IC50 (cytotoxicity, MTT)
Procedure: as §1

[12] = Chemical inhibition of [6]-shogaol metabolism in liver microsomes; type: in vitro ADME, human; settings: inhibitor 500 μM, 20 min pre-incubation, [6]-shogaol 50 μM, 30 min
Procedure: Inhibitors ABT (500 μM) and 18β-GA (500 μM) or DMSO controls were pre-incubated with microsomes in experimental incubation mixture at 37° C. for 20 minutes before initiating the reaction by the addition of [6]-shogaol (50 μM). Reactions were terminated 30 minutes after substrate addition and incubation in a 37° C. water bath by equal volume of ice-cold acetonitrile with 2% acetic acid. The mixture was vortexed and underwent centrifugation at 13,000 g for 10 minutes. Aliquots of supernatant were stored at −20° C. until analysis.

[13] = system: H-1299 human lung cancer cells; experiment: MTT growth inhibition of human cancer cells, 24 h (Part 1); type: cell-based; settings: Homo sapiens, NCI-H1299; H-1299, 24 h, 0 to 80 μM
Procedure: (§5) The reading reflected the number of viable cells and was expressed as a percentage of viable cells in the control. Both HCT-116 and H-1299 cells were cultured in McCoy's 5A medium. All of the above media were supplemented with 10% fetal bovine serum, 1% penicillin/streptomycin, and 1% glutamine, and the cells were kept in a 37° C. incubator with 95% humidity and 5% CO2.

[14] = system: HCT-116 human colon cancer cells; experiment: as above; type: cell-based; settings: Homo sapiens; HCT-116, 24 h, 0 to 80 μM
Procedure: as §5

H-1299 cells [15] = experiment: TUNEL apoptosis assay (Part 1); type: cell-based, human; settings: 24 h
Procedure: (§6) HCT-116 and H-1299 cells were seeded in six-well plates at 1.0×10^5 cells/well and were incubated at 37° C. in a 5% CO2 incubator. After 24 h, fresh media supplemented with DMSO (control), [6]-shogaol (10 or 20 μM), M9 (40 or 80 μM), or M11 (40 or 80 μM) were added to the wells. After 24-h incubation, cells were washed and pretreated for 15 min at room temperature with a solution of 20 μg/ml proteinase K. Cells were then washed twice with PBS pH 7.4 and were fixed for 10 min at room temperature using 10% neutral formaldehyde solution. After two washes in distilled H2O, cells were resuspended in 100 μl of distilled H2O and were applied on silanized microscope slides. Slides were incubated overnight at 37° C. and were washed twice with PBS. Terminal deoxynucleotidyl transferase deoxyuridine triphosphate nick-end labeling (TUNEL) assay was then performed according to the manufacturer's protocol. Cells were observed under 400× power using a Zeiss A1 microscope (Carl Zeiss, Inc., Thornwood, N.Y.).
(§7) Ten fields per slide were evaluated, and TUNEL-positive cells (with brown coloration in the nucleus) were expressed as a percentage of the total number of cells contained in a field. Statistical Analysis. For simple comparisons between two groups, twotailed Student's t test was used. A p value of less than 0.05 was considered statistically significant in all the tests.

HCT-116 cells [16] = experiment: TUNEL apoptosis assay (Part 1); type: cell-based, human; settings: 24 h
Procedure: as §6, §7

CCCCCC(CC(=O)CCc1ccc(O)c(OC)c1)SC[C@H](NC(=O)CC[C@H](N)C(=O)O)C(=O)NCC(=O)O (stereo partly drawn) [M13, 5-glutathiol-[6]-shogaol]
IC50 [1]: 45.5 µM | IC50 [2]: 47.8 µM | IC50 [3]: 75.5 µM | IC50 [4]: 57.5 µM | induction of apoptosis (TUNEL) versus DMSO (H-1299 cells [5]): Apoptosis was observed | induction of apoptosis (TUNEL) versus DMSO (HCT-116 cells [6]; 6 hours): higher levels of apoptosis | induction of apoptosis (TUNEL) versus DMSO (HCT-116 cells [6]; 24 hours): Apoptosis was observed

CCCCCCCC(CC(=O)CCc1ccc(O)c(OC)c1)SC[C@H](N)C(=O)O (stereo partly drawn) [M2′, 5-cysteinyl-[8]-shogaol]
IC50 [7]: 15.2 µM | IC50 [8]: 31.2 µM | p53 expression (Western blot) (HCT-116 cells [9]): increase in p53 accumulation | p53 expression (Western blot) (HT-29 cells): increase in p53 accumulation

CCCCCCCCCC(CC(=O)CCc1ccc(O)c(OC)c1)SC[C@H](N)C(=O)O (stereo partly drawn) [M2″, 5-cysteinyl-[10]-shogaol]
IC50 [7]: 13.3 µM | IC50 [8]: 28.8 µM | p53 expression (Western blot) (HCT-116 cells [9]): increase in p53 accumulation | p53 expression (Western blot) (HT-29 cells): increase in p53 accumulation

CCCCCC(CC(O)CCc1ccc(O)c(OC)c1)SC (stereo not drawn) [M12, 5-methylthio-1-(4′-Hydroxy-3′-methoxyphenyl)-decan-3-ol]
IC50 ([2]; Homo sapiens, NCI-H1299): 69.9 µM | IC50 at 48 h (in vitro [10]): > 100 µM | IC50 at 48 h (in vitro [11]): > 100 µM

CCCCCC(CC(O)CCc1ccc(O)c(OC)c1)SCC(NC(C)=O)C(=O)O (stereo not drawn) [M4, 5-N-acetylcysteinyl-M6]
activity against cancer cells (MTT) [1]: little to no activity | activity against cancer cells (MTT) [2]: little to no activity

CCCCCC(CC(=O)CCc1ccc(O)c(OC)c1)SC[C@H](NC(C)=O)C(=O)O (stereo partly drawn) [M5, 5-N-acetylcysteinyl-[6]-shogaol]
IC50 [1]: 54.3 µM | IC50 [2]: 72.6 µM | IC50 [3]: > 100 µM | IC50 [4]: > 100 µM

CC1(C)[C@@H](O)CC[C@]2(C)[C@H]3C(=O)C=C4[C@@H]5C[C@@](C)(C(=O)O)CC[C@]5(C)CC[C@@]4(C)[C@]3(C)CC[C@@H]12 [18β-glycyrrhetinic acid]
effect on reductive metabolism of [6]-shogaol [12]: decimated the reductive metabolism

CCCCCC(CC(=O)CCc1ccc(O)c(OC)c1)SC (stereo not drawn) [M10, 5-methylthio-1-(4′-hydroxy-3′-methoxyphenyl)-decan-3-one]
IC50 ([1]; Homo sapiens): 78.2 µM | IC50 ([2]; Homo sapiens, NCI-H1299): 60.6 µM | IC50 at 48 h (in vitro [10]): > 100 µM | IC50 at 48 h (in vitro [11]): > 100 µM

CCCCCCCC(=O)CCc1ccc(O)c(O)c1 [M8, 1-(3′,4′-dihydroxyphenyl)-decan-3-one]
IC50 ([1]; Homo sapiens): 58.8 µM | IC50 at 48 h (in vitro [10]): > 100 µM | IC50 at 48 h (in vitro [11]): > 100 µM

CCCCCC(CC(O)CCc1ccc(O)c(OC)c1)SCC(N)C(=O)O (stereo not drawn) [M1, 5-cysteinyl-M6]
activity against cancer cells (MTT) [1]: little to no activity | activity against cancer cells (MTT) [2]: little to no activity

CCCCCCCC(=O)CCc1ccc(O)c(OC)c1 [M11, 1-(4′-hydroxy-3′-methoxyphenyl)-decan-3-one]
IC50 [13]: 66.5 µM | IC50 [14]: 84 µM | apoptotic cells (TUNEL) (H-1299 cells [15]; H-1299, 40 μM): 8.3% | apoptotic cells (TUNEL) (H-1299 cells [15]; H-1299, 80 μM): 19.4% | apoptotic cells (TUNEL) (HCT-116 cells [16]; HCT-116, 40 μM): 12.9% | apoptotic cells (TUNEL) (HCT-116 cells [16]; HCT-116, 80 μM): 21.1% | IC50 ([1]; Homo sapiens): 84 µM | IC50 ([2]; Homo sapiens, NCI-H1299): 66.5 µM | IC50 at 48 h (in vitro [10]): > 100 µM | IC50 at 48 h (in vitro [11]): > 100 µM

CCCCCCCC(O)CCc1ccc(O)c(OC)c1 (stereo not drawn) [M9, 1-(4′-hydroxy-3′-methoxyphenyl)-decan-3-ol]
IC50 [13]: 77.7 µM | IC50 [14]: 82.2 µM | apoptotic cells (TUNEL) (H-1299 cells [15]; H-1299, 40 μM): 7.4% | apoptotic cells (TUNEL) (H-1299 cells [15]; H-1299, 80 μM): 15.4% | apoptotic cells (TUNEL) (HCT-116 cells [16]; HCT-116, 40 μM): 9.6% | apoptotic cells (TUNEL) (HCT-116 cells [16]; HCT-116, 80 μM): 16.9% | IC50 ([1]; Homo sapiens): 82.2 µM | IC50 ([2]; Homo sapiens, NCI-H1299): 82.5 µM | IC50 at 48 h (in vitro [10]): > 100 µM | IC50 at 48 h (in vitro [11]): > 100 µM
